According to US8623924B2, “Compositions and methods for modulating metabolic pathways” (Nusirt Sciences, Inc., priority 2011, dated 2014):
Marks after values point to notes of the source that are not given here.

Key:
Adipocytes (3T3-L1) = test: Fatty acid oxidation (3H-palmitate) in 3T3-L1 adipocytes; assay type: cell-based; settings: leucine 0.5 mM, resveratrol 200 nM
Protocol: High glucose medium reduced fatty acid oxidation by 46% (p<0.05).
Fatty acid oxidation was measured using ^3H-labeled palmitate oxidation, with the ^3H label trapped as water as a result of the fat oxidation. The ^3H was then measured via scintillation counter.

[1] = Body weight, weight gain and visceral adiposity in diet-induced obese mice; assay type: in vivo; settings: 6 weeks on diet
From the text: (§1) Six week old male c57/BL6 mice were fed a high-fat diet with fat increased to 45% of energy (Research Diets D12451) for 6 weeks to induce obesity.
(§2) At the of the treatment period (6 weeks) all animals were humanely euthanized, and blood and tissues collected for further experiments.

[2] = MicroPET/CT glucose and palmitate uptake in diet-induced obese mice; assay type: in vivo; settings: 6 weeks on diet
From the text: as §1
MicroPET/CT (Glucose and Palmitate Uptake): At the end of the treatment period (6 weeks of treatment) subgroups of each treatment diet group (5 animals/group, 35 animals total) were used to measure whole body glucose and palmitate uptake via PET/CT Imaging. To visualize these compounds using microPET imaging, the glucose or palmitate was labeled with fluorine-18 (108 mins half life) or carbon-11 (20 mins half life), respectively. Each mouse was fasted for 4 hours, then anesthetized using 1-3% isoflurane delivered by nose cone or in a mouse-sized induction chamber purpose-built for small animal imaging protocols. While under anesthesia the mice were injected iv with <2 mCi of each tracer, then be left for a period of time (minutes to up ˜1 hour) to allow the uptake of the tracer. During the scan, mice were kept warm using a thermostatically controlled heated bed and were treated with ophthalmic ointment prior to scanning. Following the live scan the mice were returned to their cage and revived. Mice were monitored constantly during this time. Following live data acquisition the mice were sacrificed by isoflurane overdose and organs harvested for further experiments.

[3] = Oxygen consumption/substrate utilization (metabolic chambers) in diet-induced obese mice; assay type: in vivo
Protocol: as §1
Oxygen Consumption/Substrate Utilization: at the end of the obesity induction period (day 0 of treatment group) and at 2 weeks and 6 weeks of treatment, oxygen consumption and substrate utilization was measured via metabolic chambers using the Comprehensive Lab Animal Monitoring Systems (CLAMS, Columbus Instruments, Columbus, Ohio) in subgroups of each treatment group. Each animal was placed in individual cages without bedding that allow automated, non-invasive data collection. Each cage is an indirect open circuit calorimeter that provides measurement of oxygen consumption, carbon dioxide production, and concurrent measurement of food intake. All mice were acclimatized to the chambers for 24 hours prior to the experiment and maintained under the regular 12:12 light:dark cycle with free access to water and food. All experiments were started in the morning and data were collected for 24 hours. Each chamber was passed with 0.6 l of air/min and was sampled for 2 min at 32-minute intervals. Exhaust O2 and CO2 content from each chamber was compared with ambient O2 and CO2 content. Food consumption was measured by electronic scales.

[4] = Indices of insulin sensitivity (plasma glucose, insulin, HOMAIR) in diet-induced obese mice; assay type: in vivo; settings: 6 weeks on diet; for Glucose (mM) / Insulin (μU/mL): plasma
From the text: Insulin sensitivity can be measured using a variety of techniques, including HOMAIR. HOMAIR, which is the homeostasis model assessment of insulin resistance can be used as a screening index of changes in insulin sensitivity. HOMAIR can be calculated via standard formula from fasting plasma insulin and glucose as follows: HOMAIR=[Insulin (uU/mL)×glucose (mM)]/22.5.
as §1, §2

C-reactive protein = test: Inflammatory biomarker C-reactive protein in diet-induced obese mice; assay type: in vivo; settings: 6 weeks on diet
IL-6 = test: Inflammatory biomarker IL-6 in diet-induced obese mice; assay type: in vivo; settings: 6 weeks on diet
MCP-1 = test: Inflammatory biomarker MCP-1 in diet-induced obese mice; assay type: in vivo; settings: 6 weeks on diet
Adiponectin = Adiponectin in diet-induced obese mice; assay type: in vivo; settings: 6 weeks on diet
Sirt1 [5] = molecular target: T1, Sirt1 (Mus musculus, UniProt Q923E4); test: Adipose tissue Sirt1 activity in diet-induced obese mice; assay type: in vivo
T1 construct: from tissue; host or cells: adipose tissue of c57/BL6 mice
T1 sequence (Q923E4 1-737): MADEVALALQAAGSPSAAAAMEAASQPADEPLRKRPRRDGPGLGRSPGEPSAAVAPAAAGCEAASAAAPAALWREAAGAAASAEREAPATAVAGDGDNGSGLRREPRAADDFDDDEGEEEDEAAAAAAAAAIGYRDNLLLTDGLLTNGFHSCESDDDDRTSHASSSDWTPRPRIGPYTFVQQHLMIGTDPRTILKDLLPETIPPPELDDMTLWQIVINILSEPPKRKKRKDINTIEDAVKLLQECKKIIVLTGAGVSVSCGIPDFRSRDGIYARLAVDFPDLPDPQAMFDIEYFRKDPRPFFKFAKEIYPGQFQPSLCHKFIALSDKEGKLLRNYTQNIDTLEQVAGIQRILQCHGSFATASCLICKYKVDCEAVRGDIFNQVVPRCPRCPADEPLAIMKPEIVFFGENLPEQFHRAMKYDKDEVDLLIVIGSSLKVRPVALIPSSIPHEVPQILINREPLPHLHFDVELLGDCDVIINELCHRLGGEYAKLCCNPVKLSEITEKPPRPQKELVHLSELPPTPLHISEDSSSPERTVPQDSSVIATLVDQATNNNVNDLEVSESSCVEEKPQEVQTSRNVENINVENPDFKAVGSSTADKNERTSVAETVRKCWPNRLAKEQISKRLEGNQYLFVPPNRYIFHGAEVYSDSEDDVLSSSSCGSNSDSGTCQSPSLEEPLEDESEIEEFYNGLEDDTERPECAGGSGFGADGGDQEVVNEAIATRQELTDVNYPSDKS

SIRT1 [6] = test: Sirt1 activity (fluorimetric kit), Example 5; assay type: cell-based; settings: leucine 0.5 mM, HMB 5 μM, resveratrol 200 nM; summary in Example 5
Protocol: Sirt1 Activity: SIRT1 activity was measured by using the SIRT1 Fluorimetric Drug Discovery Kit (BML-AK555, ENZO Life Sciences International, Inc. PA, USA). The assay measures SIRT1 activity by the degree of deacetylation of a standardized substrate containing an acetylated lysine side chain. The substrate utilized is a peptide containing […] of human […]]), an established target of SIRT1 activity; SIRT1 activity is directly proportional to the degree of deacetylation of […]. Samples were incubated with peptide substrate (25 μM), and NAD^+ (500 μM) in a phosphate-buffered saline solution at 37° C. on a horizontal shaker for 45 minutes. The reaction was stopped with the addition of 2 mM nicotinamide and a developing solution that binds to the deacetylated lysine to form a fluorophore.

irisin = test: Plasma irisin in diet-induced obese mice; assay type: in vivo; settings: six weeks, resveratrol 12.5 mg/kg diet, leucine 2.42%
Protocol: as §1
As described in Example 5, C2C12 myotubes treated with the indicated combinations of compounds were used to produce conditioned media, with which 3T3-L1 adipocytes were then treated. Fatty acid oxidation was measured as in Example 5. Irisin levels were measured by Western blot and ELISA, both in conditioned media and in plasma from mice treated according to Example 4.
ELISA: Irisin was also detected in C2C12 incubation media from treated cells and in mouse plasma using a commercial enzyme immunoassay kit obtained from Phoenix Pharmaceuticals, Inc. (Burlingame, Calif.). This kit uses an irisin (FNDC5 [16-127] fragment) and streptavidin-horseradish peroxidase detection on a microplate reader at 450 nm.

UCP1 = test: Subcutaneous adipose UCP1 mRNA expression in diet-induced obese mice; assay type: in vivo; settings: six weeks, resveratrol 12.5 mg/kg diet
[7] = high resveratrol 225 mg/kg diet
[8] = low resveratrol 12.5 mg/kg diet, low HMB 2 g CaHMB/kg diet, high HMB 10 g CaHMB/kg diet, leucine 2.42% of diet

Oc1ccc(/C=C/c2cc(O)cc(O)c2)cc1 [resveratrol, 3,5,4′-Trihydroxy-trans-stilbene]
increase in fatty acid oxidation, high glucose (Adipocytes (3T3-L1); high (25 mM) glucose, 4 hours, HMB 5 uM, vs. control): no effect
stimulation of fatty acid oxidation (Adipocytes (3T3-L1); HMB 5 μM, summary in Example 5): no effect
Visceral Adipose Volume (mm^3) [1, 7]: 6031 ± 323^a mm^3
Weight (g) [1, 7]: 38.7 ± 1.2^a g
Weight gain (g) [1, 7]: 22.3 ± 2.4^a g
Visceral Adipose Volume (mm^3) [1, 8]: 6551 ± 575^a mm^3
Weight (g) [1, 8]: 40.8 ± 2.5^a g
Weight gain (g) [1, 8]: 20.9 ± 1.5^a g
Fat oxidation (PET palmitate uptake; Muscle SUV) [2, 7]: 2.29 ± 0.11^b SUV
Muscle Glucose Uptake (18F-deoxyglucose SUV) [2, 7]: 3.87 ± 0.32^a SUV
Fat oxidation (PET palmitate uptake; Muscle SUV) [2, 8]: 1.51 ± 0.44^a SUV
Muscle Glucose Uptake (18F-deoxyglucose SUV) [2, 8]: 3.63 ± 1.29^a SUV
Heat Production [3, 7]: 0.552 ± 0.015^b
Heat Production [3, 8]: 0.517 ± 0.014^a
HOMAIR [4, 7]: 0.59 ± 0.26^b
HOMAIR [4, 8]: 2.41 ± 0.66^a
Glucose (mM) [4, 7]: 5.14 ± 0.75^a mM
Insulin (μU/mL) [4, 7]: 10.1 ± 2.7^a μU/mL
Glucose (mM) [4, 8]: 5.14 ± 0.85^a mM
Insulin (μU/mL) [4, 8]: 10.4 ± 1.6^a μU/mL
C-reactive protein (ng/mL) (C-reactive protein; [7]): 123.9 ± 35.3^a ng/mL
C-reactive protein (ng/mL) (C-reactive protein; [8]): 134.8 ± 8.5^a ng/mL
IL-6 (pg/mL) (IL-6; [7]): 14.1 ± 1.3^b pg/mL
IL-6 (pg/mL) (IL-6; [8]): 23.2 ± 2.9^a pg/mL
MCP-1 (pg/mL) (MCP-1; [7]): 27.3 ± 6.8^b pg/mL
MCP-1 (pg/mL) (MCP-1; [8]): 104.4 ± 16.5^a pg/mL
Adiponectin (ng/mL) (Adiponectin; [7]): 14.8 ± 1.8^b ng/mL
Adiponectin (Adiponectin; [8]): 12.4 ± 1.1 ng/mL
adipose tissue Sirt1 activity (Sirt1 [5]; high dose resveratrol (FIG. 10)): non-significant trend towards an increase
adipose tissue Sirt1 activity (Sirt1 [5]; low dose of resveratrol, HMB, or their combinations with HMB or leucine (FIG. 10)): Neither resveratrol nor HMB exerted significant independent effects
stimulation of Sirt1 activity (SIRT1 [6]): no effect
increase in plasma irisin (irisin): no independent effect
increase in UCP1 expression in white subcutaneous adipose tissue (UCP1): no independent effect
